# Laboratory results taken from patent US20210024542A1 (Torcept Therapeutics, Inc., priority 2018, published 2021).
# pEC50, pIC50: −log10 of the molar value.
# Experiments:
# [1] = system: U-87 MG; test: OncoPanel cell proliferation assay, U-87 MG; type: cell-based, human
# Protocol: (§1) Cells were grown in RPMI 1640, 10% FBS, 2 mM L-alanyl-L-glutamine, 1 mM Na pyruvate, or a special medium. Cells were seeded into 384-well plates and incubated in a humidified atmosphere of 5% CO2 at 37° C. Compounds were added the day following cell seeding. At the same time, a time zero untreated cell plate was generated. After a 3-day incubation period, cells were fixed and stained to allow fluorescence imaging of nuclei. Compounds (1 mM stock solutions) were serially diluted in half-log steps from the highest test concentration ([…]), and assayed over 10 concentrations with a maximum assay concentration of 0.1% DMSO. Automated fluorescence microscopy was carried out using a Molecular Devices ImageXpress Micro XL high-content imager, and images were collected with a 4× objective. 16-bit TIFF images were acquired and analyzed with MetaXpress 5.1.0.41 software.
# (§2) Cell proliferation was measured by the fluorescence intensity of an incorporated nuclear dye. The output is referred to as the relative cell count, where the measured nuclear intensity is transformed to percent of control (POC) using the following formula: […]
# (§3) Cellular response parameters were calculated using nonlinear regression to a sigmoidal single-site dose response model:
# (§4) Where y is a response measured at concentration x, A and B are the lower and upper limits of the response, C is the concentration at the response midpoint (EC50), and D is the Hill Slope (Ref. 1).
# (§5) EC50 is the test compound concentration at the curve inflection point or half the effective response (parameter C of the fitted curve solution). GI50 is the concentration needed to reduce the observed growth by half (midway between the curve maximum and the time zero value). “Cell Count Activity Area” is an estimate of the integrated area above the curve (Barretina, et al. The Cancer Cell Line Encyclopedia enables predictive modelling of anticancer drug sensitivity. Nature 483: 603-607). […] In rare instances, values <0 or >10 may be observed. […] Curve-fitting, calculations, and report generation was performed using a custom data reduction engine and MathIQ based software (AIM).
# [2] = system: ST486; test: OncoPanel cell proliferation assay, ST486; type: cell-based, human; settings: for Relative cell count (%) Mean: ST486
# Protocol: as §1, §2, §3, §4, §5
# [3] = system: CaOV3; test: OncoPanel cell proliferation assay, CaOV3; type: cell-based, human; settings: for Relative cell count (%) Mean: CaOV3
# Protocol: as §1, §2, §3, §4, §5
# [4] = system: CHP-212; test: OncoPanel cell proliferation assay, CHP-212; settings: for Relative cell count (%) Mean: CHP-212
# Protocol: Cells were seeded into 384-well plates and incubated in a humidified atmosphere of 5% CO2 at 37° C. Compounds were added the day following cell seeding. At the same time, a time zero untreated cell plate was generated. After a 3-day incubation period, cells were fixed and stained to allow fluorescence imaging of nuclei. Compounds (1 mM stock solutions) were serially diluted in half-log steps from the highest test concentration (1 micromol), and assayed over 10 concentrations with a maximum assay concentration of 0.1% DMSO. Automated fluorescence microscopy was carried out using a Molecular Devices ImageXpress Micro XL high-content imager, and images were collected with a 4× objective. 16-bit TIFF images were acquired and analyzed with MetaXpress 5.1.0.41 software.
# GI50 is the concentration needed to reduce the observed growth by half (midway between the curve maximum and the time zero value). […] In rare instances, values <0 or >10 may be observed. […] Curve-fitting, calculations, and report generation was performed using a custom data reduction engine and MathIQ based software (AIM).
# [5] = system: AGS; test: OncoPanel cell proliferation assay, AGS; type: cell-based, human
# Protocol: as §1, §2, §3, §4, §5
# [6] = system: CEM-C1; test: OncoPanel cell proliferation assay, CEM-C1; type: cell-based, human; settings: for Relative cell count (%) Mean: CEM-C1
# Protocol: as §1, §2, §3, §4, §5
# [7] = Homo sapiens, 72 h, 3-day incubation, read-out: Cell Count EC50
# [8] = Homo sapiens, 72 h, 3-day incubation, read-out: Cell Count GI50
# [9] = Homo sapiens, 72 h, 3-day incubation, read-out: Cell Count IC50
smiles,measurement,setting,value
"CO[C@H]1C[C@@H]2CC[C@@H](C)[C@@](O)(O2)C(=O)C(=O)N2CCCC[C@H]2C(=O)O[C@H]([C@H](C)C[C@@H]2C[C@@H]3C[C@H]2C[C@H]3O)CC(=O)[C@H](C)/C=C(\C)[C@@H](O)[C@@H](OC)C(=O)[C@H](C)C[C@H](C)/C=C/C=C/C=C/1C [Formula I, 37R-hydroxynorbornylrapamycin]",Relative cell count (%) Mean,[1]; 1.00E+00 microM,51.2%
same,Relative cell count (%) Mean,[1]; 1.00E−01 microM,54.5%
same,Relative cell count (%) Mean,[1]; 1.00E−02 microM,54.7%
same,Relative cell count (%) Mean,[1]; 1.00E−03 microM,64.8%
same,Relative cell count (%) Mean,[1]; 1.01E−04 microM,87.3%
same,Relative cell count (%) Mean,[1]; 3.16E−01 microM,51.6%
same,Relative cell count (%) Mean,[1]; 3.17E−02 microM,50.4%
same,Relative cell count (%) Mean,[1]; 3.17E−03 microM,58.9%
same,Relative cell count (%) Mean,[1]; 3.18E−04 microM,71.8%
same,Relative cell count (%) Mean,[1]; 3.18E−05 microM,93.7%
same,pEC50,[1]; [7],9.69
same,GI50,[1]; [8],0.509 nM
same,pIC50,[1]; [9],7.31
same,Cell Count Activity Area,[1]; scale 0-10,3.92
same,pEC50,"[2]; Homo sapiens, 72 h, ST486, 3-day incubation, read-out: Cell Count EC50",9.89
same,GI50,"[2]; Homo sapiens, 72 h, ST486, 3-day incubation, read-out: Cell Count GI50",0.226 nM
same,pIC50,"[2]; Homo sapiens, 72 h, ST486, 3-day incubation, read-out: Cell Count IC50",< 6.00
same,Cell Count Activity Area,"[2]; ST486, scale 0-10",3.70
same,Relative cell count (%) Mean,[2]; 1.00E+00 microM,50.5%
same,Relative cell count (%) Mean,[2]; 1.00E−01 microM,58.5%
same,Relative cell count (%) Mean,[2]; 1.00E−02 microM,56.8%
same,Relative cell count (%) Mean,[2]; 1.00E−03 microM,61.1%
same,Relative cell count (%) Mean,[2]; 1.01E−04 microM,81.6%
same,Relative cell count (%) Mean,[2]; 3.16E−01 microM,51.1%
same,Relative cell count (%) Mean,[2]; 3.17E−02 microM,54.8%
same,Relative cell count (%) Mean,[2]; 3.17E−03 microM,56.0%
same,Relative cell count (%) Mean,[2]; 3.18E−04 microM,63.3%
same,Relative cell count (%) Mean,[2]; 3.18E−05 microM,90.7%
same,Cell Count Activity Area,"[3]; CaOV3, scale 0-10",2.82
same,Relative cell count (%) Mean,[3]; 1.00E+00 microM,54.4%
same,Relative cell count (%) Mean,[3]; 1.00E−01 microM,58.3%
same,Relative cell count (%) Mean,[3]; 1.00E−02 microM,64.8%
same,Relative cell count (%) Mean,[3]; 1.00E−03 microM,75.3%
same,Relative cell count (%) Mean,[3]; 1.01E−04 microM,91.0%
same,Relative cell count (%) Mean,[3]; 3.16E−01 microM,57.1%
same,Relative cell count (%) Mean,[3]; 3.17E−02 microM,59.5%
same,Relative cell count (%) Mean,[3]; 3.17E−03 microM,68.5%
same,Relative cell count (%) Mean,[3]; 3.18E−04 microM,85.0%
same,Relative cell count (%) Mean,[3]; 3.18E−05 microM,92.8%
same,pEC50,"[3]; Homo sapiens, Caov-3, 72 h, CaOV3, 3-day incubation, read-out: Cell Count EC50",9.01
same,GI50,"[3]; Homo sapiens, Caov-3, 72 h, CaOV3, 3-day incubation, read-out: Cell Count GI50",9.68 nM
same,pIC50,"[3]; Homo sapiens, Caov-3, 72 h, CaOV3, 3-day incubation, read-out: Cell Count IC50",< 6.00
same,Cell Count Activity Area,"[4]; CHP-212, scale 0-10",3.70
same,Relative cell count (%) Mean,[4]; 1.00E−01 microM,49.6%
same,Relative cell count (%) Mean,[4]; 1.00E−02 microM,52.8%
same,Relative cell count (%) Mean,[4]; 1.00E−03 microM,56.6%
same,Relative cell count (%) Mean,[4]; 1.01E−04 microM,70.6%
same,Relative cell count (%) Mean,[4]; 3.16E−01 microM,45.9%
same,Relative cell count (%) Mean,[4]; 3.17E−02 microM,49.0%
same,Relative cell count (%) Mean,[4]; 3.17E−03 microM,55.3%
same,Relative cell count (%) Mean,[4]; 3.18E−04 microM,63.3%
same,Relative cell count (%) Mean,[4]; 3.18E−05 microM,86.7%
same,pEC50,"[4]; Homo sapiens, CHP-212, 72 h, read-out: Cell Count EC50",10.04
same,GI50,"[4]; Homo sapiens, CHP-212, 72 h, read-out: Cell Count GI50",0.125 nM
same,pIC50,"[4]; Homo sapiens, CHP-212, 72 h, read-out: Cell Count IC50",7.71
same,Relative cell count (%) Mean,[5]; 1.00E+00 microM,32.3%
same,Relative cell count (%) Mean,[5]; 1.00E−01 microM,39.3%
same,Relative cell count (%) Mean,[5]; 1.00E−02 microM,39.1%
same,Relative cell count (%) Mean,[5]; 1.00E−03 microM,39.8%
same,Relative cell count (%) Mean,[5]; 1.01E−04 microM,58.2%
same,Relative cell count (%) Mean,[5]; 3.16E−01 microM,38.3%
same,Relative cell count (%) Mean,[5]; 3.17E−02 microM,34.7%
same,Relative cell count (%) Mean,[5]; 3.17E−03 microM,40.1%
same,Relative cell count (%) Mean,[5]; 3.18E−04 microM,45.6%
same,Relative cell count (%) Mean,[5]; 3.18E−05 microM,82.7%
same,pEC50,[5]; [7],10.20
same,GI50,[5]; [8],0.136 nM
same,pIC50,[5]; [9],9.73
same,Cell Count Activity Area,[5]; scale 0-10,5.50
same,Cell Count Activity Area,"[6]; CEM-C1, scale 0-10",3.52
same,Relative cell count (%) Mean,[6]; 1.00E+00 microM,47.1%
same,Relative cell count (%) Mean,[6]; 1.00E−01 microM,53.2%
same,Relative cell count (%) Mean,[6]; 1.00E−02 microM,58.4%
same,Relative cell count (%) Mean,[6]; 1.00E−03 microM,68.7%
same,Relative cell count (%) Mean,[6]; 1.01E−04 microM,90.0%
same,Relative cell count (%) Mean,[6]; 3.16E−01 microM,48.9%
same,Relative cell count (%) Mean,[6]; 3.17E−02 microM,53.1%
same,Relative cell count (%) Mean,[6]; 3.17E−03 microM,62.4%
same,Relative cell count (%) Mean,[6]; 3.18E−04 microM,72.7%
same,Relative cell count (%) Mean,[6]; 3.18E−05 microM,94.0%
same,pEC50,"[6]; Homo sapiens, 72 h, CEM-C1, 3-day incubation, read-out: Cell Count EC50",9.30
same,GI50,"[6]; Homo sapiens, 72 h, CEM-C1, 3-day incubation, read-out: Cell Count GI50",10.2 nM
same,pIC50,"[6]; Homo sapiens, 72 h, CEM-C1, 3-day incubation, read-out: Cell Count IC50",6.41
